From patent publication US7569537B2, “Peptide antagonists for inhibiting heat shock protein (Hsp 16.3) of Mycobacterium tuberculosis” (priority 2004, dated 2009) come the findings set out here.

Assay [1] has as its target T1, Hsp16.3 (Mycobacterium tuberculosis, UniProt P9WMK1). As to the kind of experiment: ADH heat aggregation assay for inhibition of Hsp16.3 chaperon activity. It counts as biochemical. How it is done:
FIG. 2. […] Aggregation assays were performed by heating 5 μM Alcohol dehydrogenase (ADH) to 50° C. directly in a spectrophotometer using a thermostated cuvette holder in a total reaction volume of 500 μl. Optical density was monitored at 360 nm for 1200 seconds and readings were taken at every 100 seconds interval. […] Then the same experiment was performed in the presence of increasing concentrations of the Hsp16.3 binding peptide Seq IDs 10. Aggregation of ADH in the absence of Hsp 16.3 (black triangle). Aggregation in the presence of Hsp 16.3 (black circle). The same experiment when performed in the presence of increasing concentrations of the Hsp 16.3 binding peptide (Seq ID 10) 25 μM (white square), 50 μM (black square), 100 μM (white triangle). Only peptide control (ADH+100 μM peptide) (white circle).
The binding of a peptide need not necessarily result in inhibition. Inhibition will happen only if binding leads to significant changes in the active site. […] A part of the invention is the development of a peptide inhibition assay for Hsp16.3. The method is based on aggregation based assays. The standard assay used for assaying the activity of alpha-crystallin like proteins is to study the protection it confers against heat induced aggregation of proteins, the aggregation activity being measured spectrophotometrically. […] Aggregation of 5 μM ADH at 50° C. can be measured as an apparent optical density at 360 nm using a spectrophotometer equipped with a thermostated cuvette holder in a total reaction volume of 500 μl. The chaperon activity of Hsp16.3 can be determined by mixing ADH with Hsp16.3 at a molar ratio of 5:4 which is equivalent to a ratio of about 12:1 between ADH and Hsp16.3 assuming a nonameric structure of Hsp16.3 as the functional unit (Chang et al., 1996) and aggregation rates again determined spectrophotometrically. […]
A part of the invention is the peptide inhibition assay for Hsp16.3 comprising of heat treating ADH alone, ADH+Hsp16.3 and ADH+Hsp16.3+25, 50 and 100 μM peptide. […] Aggregation of 5 μM ADH at 50° C. was measured as an apparent optical density at 360 nm using Hitachi spectrophotometer equipped with a thermostated cuvette holder in a total reaction volume of 500 μl. The chaperon activity of Hsp16.3 was determined by mixing ADH with Hsp16.3 at a molar ratio of 5:4 and aggregation rates were again determined spectrophotometrically. […]
Aggregation assays were performed by heating 5 μM Alcohol dehydrogenase (ADH) to 50° C. directly in a spectrophotometer using a thermostated cuvette holder in a total reaction volume of 500 μl. Absorbance was monitored at 360 nm (A360) for 1200 seconds and readings were taken at every 100 seconds interval. […] The increase in absorbance indicates aggregation of ADH. […]

For assay [2], the target named is T2, human alphaB-crystallin (Homo sapiens, UniProt P02511).
T2 construct: made in house
T2 sequence (P02511 1-175): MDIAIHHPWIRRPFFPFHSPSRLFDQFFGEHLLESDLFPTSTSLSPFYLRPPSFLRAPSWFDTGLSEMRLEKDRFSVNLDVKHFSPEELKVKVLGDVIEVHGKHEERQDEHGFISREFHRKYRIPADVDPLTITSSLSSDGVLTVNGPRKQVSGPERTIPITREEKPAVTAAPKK
As to the kind of experiment: ADH heat aggregation assay with alphaB-crystallin instead of Hsp16.3. It counts as biochemical. The note with it: 25, 50 and 100 μM peptide, ADH:alphaB-crystallin 5:4. The protocol: FIG. 3. An example to show the specificity of the inhibitory peptides for Hsp16.3 and not for alphaB-crystallin—a component of human eye lens. A similar assay as described in FIG. 2 was performed using alphaB-crystalline instead of Hsp16.3. The molar ratio between ADH and alphaB-crystallin was maintained 5:4 as in the case of Hsp 16.3. Aggregation in the absence of alphaB-crystallin (black triangle). Aggregation in the presence of alphaB-crystalline (black circle). The same experiment was performed in the presence of increasing concentrations of the Hsp16.3 binding peptide (Seq ID 10) 25 μM (white square), 50 μM (black square), 100 μM (white triangle). Only peptide control (ADH+100 μM peptide) (white circle).
ADH upon being heated to 50° C. aggregates. This aggregation can be completely stopped when Hsp16.3 is added in such a way so as to obtain a molar ratio of ADH to Hsp 16.3 monomer of about 5:4. Incorporation of peptide at a concentration of 100 μM i.e. about 25 fold molar excess leads to significant inhibition of chaperon activity. […] Since it has been shown that Hsp16.3 has functional similarity with human alphaB-crystallin, an eye lens protein (Valdez et al., 2002), therefore the effect of these peptides on human alphaB-crystallin was examined. […] The vector used for expression of this protein was originally generated by Dr. W. C. […]

Assay [3] concerns the target T1, Hsp16.3. As to the kind of experiment: NMR (TOCSY) amide proton chemical shifts of peptide free and with Hsp16.3. It counts as binding. The settings on record: 0.1 mM protein, 2 mM peptide, pH 7.0, 4 °C. How it is done:
FIG. 5. Comparison of chemical shifts of amide protons of free peptide (Seq ID 10) (a) and peptide with Hsp16.3 protein (b). Resonance assignments are indicated with a one-letter amino acid code. All NMR spectra were taken in a Bruker DRX-500 spectrometer equipped with a Z-field gradient probe. All measurements were done in high precision 5-mm NMR tubes in 20 mM sodium phosphate buffer, pH 7.0, containing 250 mM NaCl in 90% H2O and 10% D2O at 4° C. TOCSY spectra were measured using standard pulse sequences in the Bruker pulse library using WATERGATE water suppression method. Standard Bruker software (Xwin-NMR version 1.3) was used to acquire and process the NMR data. The NMR samples were adjusted to a protein concentration of 0.1 mM and a 20-fold ligand excess (2 mM) over binding sites was used throughout the studies.
An important aspect of inhibitor development procedures is to understand the nature of interactions between the inhibitor and its target. […] As a part of this disclosure it is shown that histidine residues in one of the two peptide inhibitors namely Seq ID 10 interact with Hsp16.3 as determined by NMR.
All NMR spectra were taken in a Bruker DRX-500 NMR spectrometer equipped with a Z-field gradient probe. […] TOCSY spectra were measured using standard pulse sequences in the Bruker pulse library using WATERGATE water suppression method. […]

The target of assay [4] is T1, Hsp16.3. The note with it: reverse phage ELISA, A405, 30 μg/well Hsp16.3 or BSA. Background: An ELISA detects its analyte on a solid surface through an enzyme-linked reagent.

No end group written: not given here.

T1 sequence (P9WMK1 whole entry, looked up): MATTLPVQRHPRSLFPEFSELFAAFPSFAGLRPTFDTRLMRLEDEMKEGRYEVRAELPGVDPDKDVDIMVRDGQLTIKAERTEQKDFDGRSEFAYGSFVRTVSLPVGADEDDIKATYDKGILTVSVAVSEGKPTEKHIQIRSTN

Take H-KMHATNHGGGS-NH2 [Seq ID 10]: the IC50 (as a rule, the point on the concentration scale where inhibition reaches its midpoint) in assay [1] is approximately 50 µM. In addition, the “inhibition of chaperon activity of Hsp16.3 (in words)” value in assay [1] (25, 50 and 100 μM peptide) is given as “dose dependent inhibition”. For the same substance, the “effect of peptide alone on aggregation of ADH (control without Hsp16.3)” value in assay [1] (ADH + 100 μM peptide, no Hsp16.3) is “does not influence the aggregation of ADH”. The “inhibition of chaperon activity of alphaB-crystallin (in words)” value in assay [2] is on record as “no inhibition”. In addition, the “chemical shift change of peptide amide protons on addition of Hsp16.3” value in assay [3] is “significant chemical shift occured in both histidines”.

Regarding H-YPHHFKHRHIPIGGGS-NH2 [Seq ID 22], the half-inhibitory concentration (IC50) in assay [1] was approximately 50 µM.

As for KMHATNH [Seq ID 9], in assay [4], the “binding of phage clone to Hsp16.3 compared to non-specific control BSA (background binding)” value was “about three-fold”.

For YPHHFKHRHIPI [Seq ID 21], the “binding of phage clone to Hsp16.3 compared to non-specific control BSA (background binding)” value in assay [4] is on record as “about three-fold”.
